The values that follow come from US20260325559A1, “Immune Activator Agent” (Oryza Oil & Fat Chemical Co., Ltd., priority 2023, published 2026).

Experiment [1] concerns iMylc® cells (immature myeloid cells induced by differentiation from iPS cells), IL-6 production. The experiment can be described thus: IL-6 production activity in iMylc cells (immature dendritic cells). Type of experiment: cell-based, human. As to conditions: 20 h, 37 °C, 5% CO2, DMSO 0.1% (v/v), ELISA of culture supernatant, FIG. 1. As for the experimental part:
In this experiment, iMylc® cells (immature myeloid cells induced by differentiation from iPS cells) purchased from Mycen Technologies Inc. were used. These cells were cultured and subjected to evaluation tests using the dedicated maintenance medium for iMylc® cells provided by Mycen Technologies Inc.
The iMylc® cells were seeded into 96-well plates (1.0×10^4 cells/well/100 μL). After adding 100 μL/well of medium containing the test substance, the cells were incubated for 20 hours at 37 °C under 5% CO2. The final concentration of DMSO was adjusted to 0.1% (v/v). After incubation, the amount of IL-6 produced in the culture supernatant was measured using a commercially available kit (Human IL-6 ELISA MAX™ Deluxe Set, BioLegend) in accordance with the manufacturer's instructions.
A general note: An ELISA detects its analyte on a solid surface through an enzyme-linked reagent.

Experiment [2] concerns CD4-positive helper T cells (human PBMCs cocultured with αMylc® cells). The experiment can be described thus: Mixed lymphocyte reaction (MLR), helper T cell proliferation induced by αMylc cells. In kind it is cell-based. To be noted: 10 μM; αMylc cells treated 24 h, MLR coculture 7 days; N=3; FIG. 5. As for the experimental part:
The test was conducted using a mixed lymphocyte reaction (MLR). In this method, αMylc® cells (derived from human peripheral blood) that had shown IL-6 production-promoting activity were treated with GlcCer[d18:2(4E,8Z)/18:0], GlcCer[t18:1(8Z)/20:0], GlcCer[d18:2(4E,8Z)/20:0], or GlcCer[d18:2(4E,8Z)/26:0] at concentrations of 1 or 10 μM for 24 hours.
During this period, peripheral blood mononuclear cells (PBMCs) isolated from human blood were labeled with the cell membrane-permeable dye carboxyfluorescein diacetate succinimidyl ester (CFDA-SE) by incubation for 7 minutes. After staining, αMylc® cells and PBMCs were mixed at a 1:2 ratio (2×10^4 cells: 4×10^4 cells) and cocultured for 7 days.
Subsequently, the mean fluorescence intensity (MFI) of CD4 (APC-stained; helper T cell marker) and CFDA (cell proliferation indicator) was quantified by flow cytometry (N=3). In the present MLR assay, the activation index was defined as the proliferation rate of helper T cells, and the gating strategy used in this analysis is shown in FIG. 4.

In the case of `CCCCCCCCCCCCCCCCCCCCC(O)C(=O)N[C@@H](CO)[C@H](O)[C@H](O)CCCCCCCCCCCCCC` (stereo partly shown) [Cer[t18:0/22:0]], the IL-6 production result in experiment [1] is listed as “significant activity”. For `CCCCCCCCC/C=C\CC/C=C/[C@@H](O)[C@H](CO[C@@H]1O[C@H](CO)[C@@H](O)[C@H](O)[C@H]1O)NC(=O)[C@H](O)CCCCCCCCCCCCCCCCCCCCCCCC` [GlcCer[d18:2(4E,8Z)/26:0]], the IL-6 production result in experiment [1] is “significant activity”. Besides, in experiment [2], the T-cell proliferation rate entry is “a significant increase in T-cell proliferation rate”. On to `CCCCCCCCC/C=C\CCC[C@@H](O)[C@@H](O)[C@H](CO[C@@H]1OC(CO)[C@@H](O)[C@@H](O)C1O)NC(=O)[C@H](O)CCCCCCCCCCCCCCCCCC` (stereo partly shown) [GlcCer[t18:1(8Z)/20:0]], for which, in experiment [1], the IL-6 production entry is “significant activity”.
